EC50 data for 29 compounds are collected here from patent US9290451B2 (Hoffmann-La Roche Inc., priority 2011, dated 2016).

The target of one assay is human CB2 receptors (Homo sapiens (Human), UniProt P34972). Briefly: cAMP assay, CHO cells expressing human CB2 receptors. It is filed as cell-based. The essentials: (§1)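 Agonist EC50 values come from cAMP levels measured in intact CHO cells. Compounds act for 30 min at 30 °C in the presence of 1 mM IBMX, and cAMP is then detected by time-resolved energy transfer after lysis.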
(In general: cAMP levels reflect the balance of adenylyl cyclase and phosphodiesterase activity.)

In a further assay the target is human CB1 receptors (Homo sapiens (Human), UniProt P21554). Briefly: cAMP assay, CHO cells expressing human CB1 receptors. It is filed as cell-based. In short, it runs like this: as §1
Setting [1] is: CHO cells expressing human CB2, cAMP, read-out: human CB2 EC50.
The mark [2] stands for this setting: CHO cells expressing human CB1, cAMP, read-out: human CB1 EC50.

Like-named read-outs stand apart in the source and are kept apart here. Some results are limits rather than exact numbers.

Chain of human CB2 receptors (P34972 whole entry): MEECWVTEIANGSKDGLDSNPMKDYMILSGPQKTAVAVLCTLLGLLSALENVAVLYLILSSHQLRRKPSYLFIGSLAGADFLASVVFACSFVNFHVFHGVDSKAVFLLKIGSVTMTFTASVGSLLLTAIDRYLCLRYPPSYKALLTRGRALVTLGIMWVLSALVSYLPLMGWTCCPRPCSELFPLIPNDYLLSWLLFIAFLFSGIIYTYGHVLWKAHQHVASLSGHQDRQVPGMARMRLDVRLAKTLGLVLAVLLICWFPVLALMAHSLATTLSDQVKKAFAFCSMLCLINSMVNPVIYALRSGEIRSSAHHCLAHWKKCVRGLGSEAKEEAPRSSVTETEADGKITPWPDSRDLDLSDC
Chain of human CB1 receptors (P21554 whole entry): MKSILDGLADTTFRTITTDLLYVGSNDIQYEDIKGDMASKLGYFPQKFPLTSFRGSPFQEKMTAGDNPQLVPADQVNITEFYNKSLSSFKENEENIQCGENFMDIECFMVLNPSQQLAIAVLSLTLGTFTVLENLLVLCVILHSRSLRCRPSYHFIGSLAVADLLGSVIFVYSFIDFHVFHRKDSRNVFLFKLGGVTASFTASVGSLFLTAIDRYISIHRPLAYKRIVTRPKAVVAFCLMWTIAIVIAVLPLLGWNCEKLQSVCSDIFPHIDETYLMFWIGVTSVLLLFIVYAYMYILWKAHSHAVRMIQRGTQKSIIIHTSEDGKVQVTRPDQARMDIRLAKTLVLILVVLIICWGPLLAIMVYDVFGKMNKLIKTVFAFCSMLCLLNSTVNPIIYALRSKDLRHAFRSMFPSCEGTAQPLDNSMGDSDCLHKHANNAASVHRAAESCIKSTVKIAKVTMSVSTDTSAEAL

A word on the EC50: it is the midpoint of the concentration-response curve. Take `CC(C)(NC(=O)c1ccc(C2CCOC2)c(-c2cccc(Cl)c2)n1)c1nccs1` (stereo not shown) [Example 101, 6-(3-Chloro-phenyl)-5-(tetrahydro-furan-3-yl)-pyridine-2-carboxylic acid (1-methyl-1-thiazol-2-yl-ethyl)-amide]: the EC50 on human CB2 receptors (setting [1]) was 102 nM; at human CB1 receptors (setting [2]), more than 10000 nM.

For the compound `Cc1nc(C(C)(C)NC(=O)c2ccc(N3CC(F)(F)C3)c(OCC3CC3)n2)no1` [Example 102, 6-Cyclopropylmethoxy-5-(3,3-difluoro-azetidin-1-yl)-pyridine-2-carboxylic acid [1-methyl-1-(5-methyl-[1,2,4]oxadiazol-3-yl)-ethyl]-amide], the values for the EC50 at human CB2 receptors (setting [1]) and on human CB1 receptors (setting [2]) were 62.7 nM and more than 10000 nM, respectively.

Turning to `NC(=O)[C@H](CC1CC1)NC(=O)c1ccc(N2CC(F)(F)C2)c(OCC2CC2)n1` [Example 103, 6-Cyclopropylmethoxy-5-(3,3-difluoro-azetidin-1-yl)-pyridine-2-carboxylic acid ((S)-1-carbamoyl-2-cyclopropyl-ethyl)-amide], the 50% effective concentration (EC50) at human CB2 receptors (setting [1]) is 7 nM; at human CB1 receptors (setting [2]) it was more than 10000 nM.

Regarding `CC(C)(NC(=O)c1ccc(Cl)c(-c2cccc(Cl)c2)n1)c1ncco1` [Example 104, 5-Chloro-6-(3-chloro-phenyl)-pyridine-2-carboxylic acid (1-methyl-1-oxazol-2-yl-ethyl)-amide], the values for the EC50 at human CB2 receptors (setting [1]) and on human CB1 receptors (setting [2]) were 517 nM and more than 10000 nM, respectively.

In the case of `CC(C)C[C@H](NC(=O)c1ccc(Cl)c(-c2cccc(Cl)c2)n1)C(N)=O` [Example 105, 5-Chloro-6-(3-chloro-phenyl)-pyridine-2-carboxylic acid ((S)-1-carbamoyl-3-methyl-butyl)-amide], the EC50 at human CB2 receptors (setting [1]) is 208 nM; at human CB1 receptors (setting [2]), more than 10000 nM.

For the compound `Cc1nc(C(C)(C)NC(=O)c2ccc(C3CCCC3)c(-c3cccc(Cl)c3)n2)no1` [Example 106, 6-(3-Chloro-phenyl)-5-cyclopentyl-pyridine-2-carboxylic acid [1-methyl-1-(5-methyl-[1,2,4]oxadiazol-3-yl)-ethyl]-amide], the values for the concentration for a half-maximal effect (EC50) at human CB2 receptors (setting [1]) and at human CB1 receptors (setting [2]) were 215 nM and more than 10000 nM, respectively.

`NC(=O)[C@H](CC1CC1)NC(=O)c1ccc(C2CCCC2)c(OCC2CC2)n1` [Example 107, 5-Cyclopentyl-6-cyclopropylmethoxy-pyridine-2-carboxylic acid ((S)-1-carbamoyl-2-cyclopropyl-ethyl)-amide]: the EC50 was found to be 10.7 nM on human CB2 receptors (setting [1]) and 1460 nM at human CB1 receptors (setting [2]).

For the compound `Cc1nc(C(C)(C)NC(=O)c2ccc(Cl)c(OCC3CC3)n2)no1` [Example 108, 5-Chloro-6-cyclopropylmethoxy-pyridine-2-carboxylic acid [1-methyl-1-(5-methyl-[1,2,4]oxadiazol-3-yl)-ethyl]-amide], the concentration giving a half-maximal response (EC50) on human CB2 receptors (setting [1]) was 190 nM; at human CB1 receptors (setting [2]), more than 10000 nM.

As to `CCC(CC)(NC(=O)c1ccc(Cl)c(OCC2CC2)n1)C(=O)NC` [Example 109, 5-Chloro-6-cyclopropylmethoxy-pyridine-2-carboxylic acid (1-ethyl-1-methylcarbamoyl-propyl)-amide], the EC50 at human CB2 receptors (setting [1]) was 178 nM; at human CB1 receptors (setting [2]), more than 10000 nM.

Take `NC(=O)[C@H](CC1CC1)NC(=O)c1ccc(Br)c(OCC2CC2)n1` [Example 110, 5-Bromo-6-cyclopropylmethoxy-pyridine-2-carboxylic acid ((S)-1-carbamoyl-2-cyclopropyl-ethyl)-amide]: the 50% effective concentration (EC50) was 224 nM at human CB2 receptors (setting [1]) and more than 10000 nM at human CB1 receptors (setting [2]).

For `CCC(CC)(NC(=O)c1ccc(C2CCCC2)c(OCC2CC2)n1)C(=O)NC` [Example 111, 5-Cyclopentyl-6-cyclopropylmethoxy-pyridine-2-carboxylic acid (1-ethyl-1-methylcarbamoyl-propyl)-amide], the EC50 on human CB2 receptors (setting [1]) was 6.9 nM; on human CB1 receptors (setting [2]), more than 10000 nM.

With `NC(=O)[C@H](CC1CC1)NC(=O)c1ccc(N2CCC(F)(F)C2)c(OCC2CC2)n1` [Example 112, 6-Cyclopropylmethoxy-5-(3,3-difluoro-pyrrolidin-1-yl)-pyridine-2-carboxylic acid ((S)-1-carbamoyl-2-cyclopropyl-ethyl)-amide], the results for the EC50 at human CB2 receptors (setting [1]) and on human CB1 receptors (setting [2]) were 15.4 nM and more than 10000 nM, respectively.

In the case of `NC(=O)[C@H](CC1CC1)NC(=O)c1ccc(C(F)(F)F)c(OCC2CC2)n1` [Example 113, 6-Cyclopropylmethoxy-5-trifluoromethyl-pyridine-2-carboxylic acid ((S)-1-carbamoyl-2-cyclopropyl-ethyl)-amide], the concentration for a half-maximal effect (EC50) is 200 nM at human CB2 receptors (setting [1]) and more than 10000 nM at human CB1 receptors (setting [2]).

On to `CC(C)C[C@H](NC(=O)c1ccc(C2CCOC2)c(OCC2CC2)n1)C(N)=O` (stereo partly drawn) [Example 114, 6-Cyclopropylmethoxy-5-(tetrahydro-furan-3-yl)-pyridine-2-carboxylic acid ((S)-1-carbamoyl-3-methyl-butyl)-amide], for which the EC50 was determined as 5.7 nM at human CB2 receptors (setting [1]) and 703 nM on human CB1 receptors (setting [2]).

As to `CC(C)C[C@H](NC(=O)c1ccc(C2CCCO2)c(OCC2CC2)n1)C(N)=O` (stereo partly drawn) [Example 115, 6-Cyclopropylmethoxy-5-(tetrahydro-furan-2-yl)-pyridine-2-carboxylic acid ((S)-1-carbamoyl-3-methyl-butyl)-amide], the EC50 was determined as 6.6 nM at human CB2 receptors (setting [1]) and 953 nM at human CB1 receptors (setting [2]).

As for `CC(C)(NC(=O)c1ccc(C2CC2)c(-c2cccc(Cl)c2)n1)c1nccs1` [Example 116, 6-(3-Chloro-phenyl)-5-cyclopropyl-pyridine-2-carboxylic acid (1-methyl-1-thiazol-2-yl-ethyl)-amide], the figures for the EC50 on human CB2 receptors and at human CB1 receptors were 85.9 nM and 1450 nM, respectively.

For `COCCOCC(C)(C)NC(=O)c1ccc(C2CC2)c(OCC2CC2)n1` [Example 117, 5-Cyclopropyl-6-cyclopropylmethoxy-pyridine-2-carboxylic acid [2-(2-methoxy-ethoxy)-1,1-dimethyl-ethyl]-amide], the EC50 at human CB2 receptors (setting [1]) is 350 nM; on human CB1 receptors (setting [2]), more than 10000 nM.

For the compound `CC(C)C[C@H](NC(=O)c1ccc(C(F)(F)F)c(OCC2CC2)n1)C(N)=O` [Example 118, 6-Cyclopropylmethoxy-5-trifluoromethyl-pyridine-2-carboxylic acid ((S)-1-carbamoyl-3-methyl-butyl)-amide], the EC50 at human CB2 receptors (setting [1]) worked out at 13.4 nM; on human CB1 receptors (setting [2]), 1550 nM.

With `CC(C)(NC(=O)c1ccc(C(F)(F)F)c(OCC2CC2)n1)c1ncon1` [Example 119, 6-Cyclopropylmethoxy-5-trifluoromethyl-pyridine-2-carboxylic acid (1-methyl-1-[1,2,4]oxadiazol-3-yl-ethyl)-amide], the half-maximal effective concentration (EC50) at human CB2 receptors (setting [1]) was 227 nM; on human CB1 receptors (setting [2]), more than 10000 nM.

Turning to `Cc1nc(C(C)(C)NC(=O)c2ccc(C(F)(F)F)c(OCC3CC3)n2)no1` [Example 120, 6-Cyclopropylmethoxy-5-trifluoromethyl-pyridine-2-carboxylic acid [1-methyl-1-(5-methyl-[1,2,4]oxadiazol-3-yl)-ethyl]-amide], the values for the EC50 at human CB2 receptors (setting [1]) and at human CB1 receptors (setting [2]) were 259 nM and more than 10000 nM, respectively.

Regarding `CC(C)(NC(=O)c1ccc(C(F)(F)F)c(OCC2CC2)n1)c1nccs1` [Example 121, 6-Cyclopropylmethoxy-5-trifluoromethyl-pyridine-2-carboxylic acid (1-methyl-1-thiazol-2-yl-ethyl)-amide], the EC50 was 111 nM on human CB2 receptors (setting [1]) and 1350 nM at human CB1 receptors (setting [2]).

As to `O=C(NC1CCCCC1CO)c1cccc(C2CCCCC2)n1` (stereo not shown) [Example 122, 6-Cyclohexyl-pyridine-2-carboxylic acid (2-hydroxymethyl-cyclohexyl)-amide], the EC50 is 158 nM at human CB2 receptors (setting [1]) and more than 10000 nM on human CB1 receptors (setting [2]).

In the case of `Cc1nc(C(C)(C)NC(=O)c2ccc(C3CCCO3)c(OCC3CC3)n2)no1` (stereo not shown) [Example 123, 6-Cyclopropylmethoxy-5-(tetrahydro-furan-2-yl)-pyridine-2-carboxylic acid [1-methyl-1-(5-methyl-[1,2,4]oxadiazol-3-yl)-ethyl]-amide], the EC50 is 20 nM on human CB2 receptors (setting [1]) and more than 10000 nM at human CB1 receptors (setting [2]).

As for `Cc1nc(C(C)(C)NC(=O)c2ccc(C3CCOC3)c(OCC3CC3)n2)no1` (stereo not shown) [Example 124, 6-Cyclopropylmethoxy-5-(tetrahydro-furan-3-yl)-pyridine-2-carboxylic acid [1-methyl-1-(5-methyl-[1,2,4]oxadiazol-3-yl)-ethyl]-amide], the half-maximal effective concentration (EC50) at human CB2 receptors (setting [1]) was 79.2 nM; on human CB1 receptors (setting [2]) it was more than 10000 nM.

For the compound `Cc1nc(C(C)(C)NC(=O)c2ccc(C3CCCO3)c(-c3cccc(Cl)c3)n2)no1` (stereo not shown) [Example 125, 6-(3-Chloro-phenyl)-5-(tetrahydro-furan-2-yl)-pyridine-2-carboxylic acid [1-methyl-1-(5-methyl-[1,2,4]oxadiazol-3-yl)-ethyl]-amide], the EC50 on human CB2 receptors (setting [1]) is 209 nM; at human CB1 receptors (setting [2]), more than 10000 nM.

Regarding `CC(C)(NC(=O)c1ccc(C2CCCO2)c(-c2cccc(Cl)c2)n1)c1ncco1` (stereo not shown) [Example 126, 6-(3-Chloro-phenyl)-5-(tetrahydro-furan-2-yl)-pyridine-2-carboxylic acid (1-methyl-1-oxazol-2-yl-ethyl)-amide], the EC50 on human CB2 receptors (setting [1]) is 240 nM; at human CB1 receptors (setting [2]), more than 10000 nM.

For the compound `CC(C)(NC(=O)c1ccc(C2CCCO2)c(-c2cccc(Cl)c2)n1)c1nccs1` (stereo not shown) [Example 127, 6-(3-Chloro-phenyl)-5-(tetrahydro-furan-2-yl)-pyridine-2-carboxylic acid (1-methyl-1-thiazol-2-yl-ethyl)-amide], the concentration giving a half-maximal response (EC50) was 224 nM on human CB2 receptors (setting [1]) and more than 10000 nM at human CB1 receptors (setting [2]).

As for `CC(C)(NC(=O)c1ccc(C2CCCC2)c(-c2cccc(Cl)c2)n1)c1nccs1` [Example 128, 6-(3-Chloro-phenyl)-5-cyclopentyl-pyridine-2-carboxylic acid (1-methyl-1-thiazol-2-yl-ethyl)-amide], the results for the concentration for a half-maximal effect (EC50) on human CB2 receptors (setting [1]) and at human CB1 receptors (setting [2]) were 240 nM and more than 10000 nM, respectively.

As for `CC(C)(NC(=O)c1ccc(C(F)(F)F)c(OCC2CC2)n1)c1ncco1` [Example 129, 6-Cyclopropylmethoxy-5-trifluoromethyl-pyridine-2-carboxylic acid (1-methyl-1-oxazol-2-yl-ethyl)-amide], the concentration giving a half-maximal response (EC50) was 184 nM on human CB2 receptors (setting [1]) and more than 10000 nM at human CB1 receptors (setting [2]).
